Test: In-vitro study of phosphorus liberated from teeth exposed to citric acid solutions
Conditions: for Mean amount Phosphorus liberated (μg) ± 1 SD: 0.3% citric acid
Protocol: To investigate the importance of calcium supplementation on exposure of enamel to citric acid solutions, five experiments were undertaken, each using eight teeth. The teeth were first subjected to prophylaxis, washed with saline and then covered in an acid resistant wax with the exception of a 5 mm diameter experimental window.
In each experiment the teeth were subjected to six consecutive 5 min exposures with 0.3% citric acid solutions at a flow rate of 0.1 ml/min. The citric acid solutions were supplemented with either 0.0, 0.5, 1.5, 2.5, 5.0, 7.5 10 or 15 mM calcium in the form of calcium hydroxide and the pH was adjusted to 3.5 or 3.8 using 1.0 M sodium hydroxide. Samples of residual citric acid were collected after every 5 min exposure of the teeth and these were frozen at −4° C., prior to phosphorus analysis by the method of Chen et al (1956) Analytical Chemistry, Vol.28, p1956-8.

Row | Structure (SMILES) | Mean amount Phosphorus liberated (μg) ± 1 SD (calcium 0.5 mM (mol ratio calcium:acid 0.03), pH 3.5) | Mean amount Phosphorus liberated (μg) ± 1 SD (calcium 0.5 mM (mol ratio calcium:acid 0.03), pH 3.8) | Mean amount Phosphorus liberated (μg) ± 1 SD (calcium 1.5 mM (mol ratio calcium:acid 0.10), pH 3.5) | Mean amount Phosphorus liberated (μg) ± 1 SD (calcium 1.5 mM (mol ratio calcium:acid 0.10), pH 3.8) | Mean amount Phosphorus liberated (μg) ± 1 SD (calcium 2.5 mM (mol ratio calcium:acid 0.17), pH 3.5) | Mean amount Phosphorus liberated (μg) ± 1 SD (calcium 2.5 mM (mol ratio calcium:acid 0.17), pH 3.8) | Mean amount Phosphorus liberated (μg) ± 1 SD (calcium 5 mM (mol ratio calcium:acid 0.35), pH 3.5) | Mean amount Phosphorus liberated (μg) ± 1 SD (calcium 5 mM (mol ratio calcium:acid 0.35), pH 3.8) | Mean amount Phosphorus liberated (μg) ± 1 SD (calcium 7.5 mM (mol ratio calcium:acid 0.52), pH 3.5) | Mean amount Phosphorus liberated (μg) ± 1 SD (calcium 7.5 mM (mol ratio calcium:acid 0.52), pH 3.8) | Mean amount Phosphorus liberated (μg) ± 1 SD (calcium 10 mM (mol ratio calcium:acid 0.70), pH 3.5) | Mean amount Phosphorus liberated (μg) ± 1 SD (calcium 10 mM (mol ratio calcium:acid 0.70), pH 3.8) | Mean amount Phosphorus liberated (μg) ± 1 SD (calcium 15 mM (mol ratio calcium:acid 1.05), pH 3.5) | Mean amount Phosphorus liberated (μg) ± 1 SD (calcium 15 mM (mol ratio calcium:acid 1.05), pH 3.8) | effect on erosive potential of a 0.3% citric acid solution (in words) (addition of calcium to 0.3% citric acid solution, effect greatest up to calcium to acid molar ratio of about 0.5) | Mean amount Phosphorus liberated (μg) ± 1 SD (calcium 0 mM (mol ratio calcium:acid 0.00), pH 3.5) | Mean amount Phosphorus liberated (μg) ± 1 SD (calcium 0 mM (mol ratio calcium:acid 0.00), pH 3.8)
1 | [Ca+2].[OH-].[OH-] [calcium, calcium hydroxide] | 1.25 ± 0.14 µg | 1.02 ± 0.09 µg | 1.07 ± 0.15 µg | 0.83 ± 0.12 µg | 1.22 ± 0.14 µg | 0.63 ± 0.13 µg | 0.79 ± 0.06 µg | 0.46 ± 0.13 µg | 0.72 ± 0.1 µg | 0.32 ± 0.10 µg | 0.46 ± 0.13 µg | 0.24 ± 0.11 µg | 0.3 ± 0.10 µg | 0.14 ± 0.07 µg | reduces its erosive potential |  | 
2 | O=C(O)CC(O)(CC(=O)O)C(=O)O [citric acid, reference compound] |  |  |  |  |  |  |  |  |  |  |  |  |  |  |  | 1.41 ± 0.11 µg | 1.26 ± 0.17 µg

— patent US6908909B2, “Liquid oral compositions comprising a calcium compound and an acidulant” (SmithKline Beecham plc, priority 1996, dated 2005)
